PubChem BioAssay (NCI)
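Results reflect a 48-hour exposure of cells in 96-well plates to compound at five concentrations. The concentration for 50% growth inhibition is given as GI50. TGI: concentration producing complete growth inhibition.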

How the values were obtained:
Test in all cases: NCI anticancer screen, dose series, 48 h
[1] = tested on: A498 renal
[2] = tested on: ACHN renal
[3] = tested on: BT-549 breast
[4] = tested on: CAKI-1 renal
[5] = tested on: COLO 205 colon
[6] = tested on: EKVX NSCLC
[7] = tested on: HCT-15 colon
[8] = tested on: HOP-62 NSCLC
[9] = tested on: HS 578T breast
[10] = tested on: HT29 colon
[11] = tested on: IGROV1 ovarian
[12] = tested on: KM12 colon
[13] = tested on: LOX IMVI melanoma
[14] = tested on: M14 melanoma
[15] = tested on: MALME-3M melanoma
[16] = tested on: MCF7 breast
[17] = tested on: MDA-MB-231 breast
[18] = tested on: MDA-MB-435
[19] = tested on: NCI-H226 lung
[20] = tested on: NCI-H23 lung
[21] = tested on: NCI-H460 lung
[22] = tested on: NCI-H522 lung
[23] = tested on: NCI/ADR-RES ovarian

Structure (SMILES): C#CC[C@@H]1C[C@]2(C)[C@H]3CC[C@@H]4[C@H]5C(C(=C)C)CC[C@]5(C(=O)NCCCCN)CC[C@@]4(C)[C@]3(C)CC[C@H]2C(C)(C)[C@H]1OC(C)=O (stereo not given in full)
- GI50 [1]: 1.78 µM
- TGI [1]: 3.19 µM
- GI50 [2]: 1.65 µM
- TGI [2]: 3.01 µM
- GI50 [3]: 1.76 µM
- TGI [3]: 3.34 µM
- GI50 [4]: 1.6 µM
- TGI [4]: 3.07 µM
- GI50 [5]: 1.68 µM
- TGI [5]: 3.3 µM
- GI50 [6]: 1.84 µM
- TGI [6]: 3.78 µM
- GI50 [7]: 1.73 µM
- TGI [7]: 3.45 µM
- GI50 [8]: 1.91 µM
- TGI [8]: 4.07 µM
- GI50 [9]: 1.82 µM
- TGI [9]: 3.81 µM
- GI50 [10]: 1.9 µM
- TGI [10]: 4.04 µM
- GI50 [11]: 1.73 µM
- TGI [11]: 3.35 µM
- GI50 [12]: 1.81 µM
- TGI [12]: 3.36 µM
- GI50 [13]: 1.56 µM
- TGI [13]: 3 µM
- GI50 [14]: 1.77 µM
- TGI [14]: 3.46 µM
- GI50 [15]: 1.68 µM
- TGI [15]: 3.33 µM
- GI50 [16]: 1.67 µM
- TGI [16]: 3.86 µM
- GI50 [17]: 1.79 µM
- TGI [17]: 3.45 µM
- GI50 [18]: 1.73 µM
- TGI [18]: 3.19 µM
- GI50 [19]: 2.03 µM
- TGI [19]: 4.84 µM
- GI50 [20]: 1.85 µM
- TGI [20]: 3.53 µM
- GI50 [21]: 1.91 µM
- TGI [21]: 3.71 µM
- GI50 [22]: 1.8 µM
- TGI [22]: 3.67 µM
- GI50 [23]: 1.82 µM
